From ChEMBL document CHEMBL4321854, “Discovery of a First-in-Class Mitogen-Activated Protein Kinase Kinase 1/2 Degrader” (J Med Chem, 2019)
Activity calls are given as the source filed them. The rule behind the calls is not given here.

Experiments:
[1] = biological target: T1, von Hippel-Lindau disease tumor suppressor/Dual specificity mitogen-activated protein kinase kinase 1 (Homo sapiens) (UniProt Q02750+P40337); assay: (§1) Protac activity against VHL/MEK1 in human HT-29 cells harboring BRAF V600E variant assessed as degradation of MEK1 after 24 hrs by Western blot analysis; type: cell-based
[2] = biological target: T2, von Hippel-Lindau disease tumor suppressor/Dual specificity mitogen-activated protein kinase kinase 1 (Homo sapiens, UniProt Q02750+P40337, V600E); assay: as §1; type: cell-based
[3] = biological target: T1, von Hippel-Lindau disease tumor suppressor/Dual specificity mitogen-activated protein kinase kinase 1 (Homo sapiens); assay: (§2) Protac activity against VHL/MEK1 in human UACC257 cells harboring BRAF V600E variant assessed as degradation of MEK1 after 24 hrs by Western blot analysis; type: cell-based
[4] = biological target: T2, von Hippel-Lindau disease tumor suppressor/Dual specificity mitogen-activated protein kinase kinase 1; assay: as §2; type: cell-based
[5] = biological target: T1, von Hippel-Lindau disease tumor suppressor/Dual specificity mitogen-activated protein kinase kinase 1 (Homo sapiens); assay: Protac activity against VHL/MEK1 in human SK-MEL-28 cells harboring with BRAF V600E variant assessed as degradation of MEK1 at 3 to 5 uM after 24 hrs by Western blot analysis; type: cell-based
[6] = biological target: T3, von Hippel-Lindau disease tumor suppressor/Dual specificity mitogen-activated protein kinase kinase 2 (Homo sapiens) (UniProt P36507+P40337); assay: Protac activity against VHL/MEK2 in human UACC257 cells harboring with BRAF V600E variant assessed as degradation of MEK2 at 3 to 5 uM after 24 hrs by Western blot analysis; type: cell-based
[7] = biological target: T4, von Hippel-Lindau disease tumor suppressor/Dual specificity mitogen-activated protein kinase kinase 2/Dual specificity mitogen-activated protein kinase kinase 1 (Homo sapiens) (UniProt P36507+Q02750+P40337); assay: Protac activity against VHL/MEK1/2 in human HT-29 cells harboring with BRAF V600E variant assessed as reduction in phosphorylation of MEK at S218/222 residues after 24 hrs by Western blot analysis; type: cell-based
[8] = biological target: T4, von Hippel-Lindau disease tumor suppressor/Dual specificity mitogen-activated protein kinase kinase 2/Dual specificity mitogen-activated protein kinase kinase 1 (Homo sapiens); assay: Protac activity against VHL/MEK1/2 in human COLO205 cells harboring with BRAF V600E variant assessed as reduction in phosphorylation of MEK at S218/222 residues after 24 hrs by Western blot analysis; type: cell-based
[9] = biological target: T4, von Hippel-Lindau disease tumor suppressor/Dual specificity mitogen-activated protein kinase kinase 2/Dual specificity mitogen-activated protein kinase kinase 1 (Homo sapiens); assay: Protac activity against VHL/MEK1/2 in human HT-29 cells harboring with BRAF V600E variant assessed as reduction in phosphorylation of ERK at T202/Y204 residues after 24 hrs by Western blot analysis; type: cell-based
[10] = biological target: T4, von Hippel-Lindau disease tumor suppressor/Dual specificity mitogen-activated protein kinase kinase 2/Dual specificity mitogen-activated protein kinase kinase 1 (Homo sapiens); assay: Protac activity against VHL/MEK1/2 in human SK-MEL-28 cells harboring with BRAF V600E variant assessed as reduction in phosphorylation of ERK at T202/Y204 residues after 24 hrs by Western blot analysis; type: cell-based
[11] = system: SK-MEL-28; assay: Effect on total ERK protein expression in human SK-MEL-28 cells at 0.001 to 5 uM after 24 hrs by Western blot analysis; type: functional, cell-based
[12] = system: UACC-257; assay: Effect on total ERK protein expression in human UACC257 cells at 0.001 to 5 uM after 24 hrs by Western blot analysis; type: functional, cell-based
[13] = biological target: T1, von Hippel-Lindau disease tumor suppressor/Dual specificity mitogen-activated protein kinase kinase 1 (Homo sapiens); assay: Protac activity against VHL/MEK1 in human SK-MEL-28 cells harboring with BRAF V600E variant assessed as degradation of MEK1 by measuring reduction in MEK1 protein level at 0.1 to 0.3 uM after 2 hrs by Western blot analysis; type: cell-based
[14] = biological target: T1, von Hippel-Lindau disease tumor suppressor/Dual specificity mitogen-activated protein kinase kinase 1 (Homo sapiens); assay: Protac activity against VHL/MEK1 in human HT-29 cells harboring with BRAF V600E variant assessed as degradation of MEK1 by measuring reduction in MEK1 protein level at 0.3 uM after 8 hrs by Western blot analysis relative to control; type: cell-based; design: scale not given: the % may be the effect or the level left
[15] = biological target: T1, von Hippel-Lindau disease tumor suppressor/Dual specificity mitogen-activated protein kinase kinase 1 (Homo sapiens); assay: Protac activity against VHL/MEK1 in human SK-MEL-28 cells harboring with BRAF V600E variant assessed as degradation of MEK1 by measuring reduction in MEK1 protein level at 0.3 uM after 8 hrs by Western blot analysis relative to control; type: cell-based; design: scale not given: the % may be the effect or the level left
[16] = biological target: T3, von Hippel-Lindau disease tumor suppressor/Dual specificity mitogen-activated protein kinase kinase 2 (Homo sapiens); assay: Protac activity against VHL/MEK2 in human SK-MEL-28 cells harboring with BRAF V600E variant assessed as degradation of MEK2 at 0.1 to 0.3 uM after 4 hrs by Western blot analysis; type: cell-based
[17] = biological target: T3, von Hippel-Lindau disease tumor suppressor/Dual specificity mitogen-activated protein kinase kinase 2 (Homo sapiens); assay: (§3) Protac activity against VHL/MEK2 in human HT-29 cells harboring with BRAF V600E variant assessed as degradation of MEK2 by measuring MEK2 protein level at 0.3 uM pretreated with VHL ligand, VH 032 for 2 hrs followed by incubation with compound for 10 hrs by Western blot analysis; type: cell-based
[18] = biological target: T1, von Hippel-Lindau disease tumor suppressor/Dual specificity mitogen-activated protein kinase kinase 1 (Homo sapiens); assay: Protac activity against VHL/MEK1 in human HT-29 cells harboring with BRAF V600E variant assessed as degradation of MEK1 by measuring MEK1 protein level at 0.3 uM pretreated with proteasome inhibitor, MG-132 for 2 hrs followed by incubation with compound for 10 hrs by Western blot analysis; type: cell-based
[19] = biological target: T4, von Hippel-Lindau disease tumor suppressor/Dual specificity mitogen-activated protein kinase kinase 2/Dual specificity mitogen-activated protein kinase kinase 1 (Homo sapiens); assay: Protac activity against VHL/MEK1/2 in human HT-29 cells harboring with BRAF V600E variant assessed as phosphorylation of MEK at S218/222 residues at 0.3 uM pretreated with proteasome inhibitor, MG-132 for 2 hrs followed by incubation with compound for 10 hrs by Western blot analysis; type: cell-based
[20] = biological target: T4, von Hippel-Lindau disease tumor suppressor/Dual specificity mitogen-activated protein kinase kinase 2/Dual specificity mitogen-activated protein kinase kinase 1 (Homo sapiens); assay: Protac activity against VHL/MEK1/2 in human SK-MEL-28 cells harboring with BRAF V600E variant assessed as phosphorylation of MEK at S218/222 residues at 0.3 uM pretreated with proteasome inhibitor, MG-132 for 2 hrs followed by incubation with compound for 10 hrs by Western blot analysis; type: cell-based
[21] = biological target: T4, von Hippel-Lindau disease tumor suppressor/Dual specificity mitogen-activated protein kinase kinase 2/Dual specificity mitogen-activated protein kinase kinase 1 (Homo sapiens); assay: Protac activity against VHL/MEK1/2 in human SK-MEL-28 cells harboring with BRAF V600E variant assessed as phosphorylation of ERK at T202/Y204 residues at 0.3 uM pretreated with proteasome inhibitor, MG-132 for 2 hrs followed by incubation with compound for 10 hrs by Western blot analysis; type: cell-based
[22] = biological target: T3, von Hippel-Lindau disease tumor suppressor/Dual specificity mitogen-activated protein kinase kinase 2 (Homo sapiens); assay: as §3, with “NEDD8-activating enzyme inhibitor, MLN4924” for “VHL ligand, VH 032”; type: cell-based
[23] = biological target: T5, von Hippel-Lindau disease tumor suppressor/Leukocyte receptor cluster member 8 (Homo sapiens) (UniProt P40337+Q96PV6); assay: Protac activity against VHL/LENG8 in human HT-29 cells harboring with BRAF V600E variant assessed as reduction in LENG8 protein level at 0.1 uM after 10 hrs by LC-MS based Volcano plot analysis; type: cell-based
[24] = biological target: T5, von Hippel-Lindau disease tumor suppressor/Leukocyte receptor cluster member 8 (Homo sapiens); assay: Protac activity against VHL/LENG8 in human HT-29 cells harboring with BRAF V600E variant assessed as LENG8 protein level at 0.1 uM after 10 hrs by Western blot analysis; type: cell-based
[25] = system: HT-29; assay: Antiproliferative activity against human HT-29 cells assessed as reduction in cell growth after 3 days by MTT assay; type: functional
[26] = system: COLO 205; assay: Antiproliferative activity against human COLO205 cells assessed as reduction in cell growth after 3 days by WST8 assay; type: functional
[27] = Ratio of Plasma concentration in Swiss albino mouse at 50 mg/kg, ip measured after 8 hrs to GI50 for antiproliferative activity against human HT-29 cells; type: organism-based; settings: in vivo
[28] = Ratio of Plasma concentration in Swiss albino mouse at 50 mg/kg, ip measured after 8 hrs to GI50 for antiproliferative activity against human UACC257 cells; type: organism-based; settings: in vivo
[29] = Toxicity in Swiss albino mouse assessed as effect on clinical signs at 50 mg/kg, ip; type: organism-based; settings: in vivo

T3 sequence (P36507 whole entry, looked up): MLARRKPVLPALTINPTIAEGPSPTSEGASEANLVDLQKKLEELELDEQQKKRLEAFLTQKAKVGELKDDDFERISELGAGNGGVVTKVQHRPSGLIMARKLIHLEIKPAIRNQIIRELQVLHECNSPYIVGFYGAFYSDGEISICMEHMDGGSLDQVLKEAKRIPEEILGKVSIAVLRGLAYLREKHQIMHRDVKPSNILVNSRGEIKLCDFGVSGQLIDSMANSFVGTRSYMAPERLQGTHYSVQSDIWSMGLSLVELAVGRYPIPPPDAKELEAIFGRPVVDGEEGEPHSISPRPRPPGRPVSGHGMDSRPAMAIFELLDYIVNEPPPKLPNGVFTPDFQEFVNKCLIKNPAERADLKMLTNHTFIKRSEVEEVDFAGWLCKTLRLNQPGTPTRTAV
T3 sequence (P40337 whole entry, looked up): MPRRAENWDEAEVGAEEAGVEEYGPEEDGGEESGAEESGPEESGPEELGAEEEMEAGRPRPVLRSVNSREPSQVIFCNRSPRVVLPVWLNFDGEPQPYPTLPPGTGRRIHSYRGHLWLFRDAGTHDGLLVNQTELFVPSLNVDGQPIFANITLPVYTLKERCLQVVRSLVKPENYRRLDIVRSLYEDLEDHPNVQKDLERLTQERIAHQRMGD
T4 sequence (P36507 whole entry, looked up): as the sequence (P36507 whole entry, looked up) above
T4 sequence (P40337 whole entry, looked up): as the sequence (P40337 whole entry, looked up) above
T4 sequence (Q02750 whole entry, looked up): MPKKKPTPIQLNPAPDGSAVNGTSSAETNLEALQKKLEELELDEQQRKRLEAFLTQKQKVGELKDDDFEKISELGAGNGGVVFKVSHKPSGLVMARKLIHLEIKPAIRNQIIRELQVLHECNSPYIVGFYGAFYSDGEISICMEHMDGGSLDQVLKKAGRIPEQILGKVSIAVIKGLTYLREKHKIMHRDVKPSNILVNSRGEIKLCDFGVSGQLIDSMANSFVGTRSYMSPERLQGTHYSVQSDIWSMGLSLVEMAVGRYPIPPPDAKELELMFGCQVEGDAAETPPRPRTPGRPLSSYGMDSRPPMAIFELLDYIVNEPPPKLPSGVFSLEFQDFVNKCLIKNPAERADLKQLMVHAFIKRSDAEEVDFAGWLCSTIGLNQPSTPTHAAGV
T1 sequence (P40337 whole entry, looked up): as the sequence (P40337 whole entry, looked up) above
T1 sequence (Q02750 whole entry, looked up): as the sequence (Q02750 whole entry, looked up) above
T5 sequence (P40337 whole entry, looked up): as the sequence (P40337 whole entry, looked up) above
T5 sequence (Q96PV6 whole entry, looked up): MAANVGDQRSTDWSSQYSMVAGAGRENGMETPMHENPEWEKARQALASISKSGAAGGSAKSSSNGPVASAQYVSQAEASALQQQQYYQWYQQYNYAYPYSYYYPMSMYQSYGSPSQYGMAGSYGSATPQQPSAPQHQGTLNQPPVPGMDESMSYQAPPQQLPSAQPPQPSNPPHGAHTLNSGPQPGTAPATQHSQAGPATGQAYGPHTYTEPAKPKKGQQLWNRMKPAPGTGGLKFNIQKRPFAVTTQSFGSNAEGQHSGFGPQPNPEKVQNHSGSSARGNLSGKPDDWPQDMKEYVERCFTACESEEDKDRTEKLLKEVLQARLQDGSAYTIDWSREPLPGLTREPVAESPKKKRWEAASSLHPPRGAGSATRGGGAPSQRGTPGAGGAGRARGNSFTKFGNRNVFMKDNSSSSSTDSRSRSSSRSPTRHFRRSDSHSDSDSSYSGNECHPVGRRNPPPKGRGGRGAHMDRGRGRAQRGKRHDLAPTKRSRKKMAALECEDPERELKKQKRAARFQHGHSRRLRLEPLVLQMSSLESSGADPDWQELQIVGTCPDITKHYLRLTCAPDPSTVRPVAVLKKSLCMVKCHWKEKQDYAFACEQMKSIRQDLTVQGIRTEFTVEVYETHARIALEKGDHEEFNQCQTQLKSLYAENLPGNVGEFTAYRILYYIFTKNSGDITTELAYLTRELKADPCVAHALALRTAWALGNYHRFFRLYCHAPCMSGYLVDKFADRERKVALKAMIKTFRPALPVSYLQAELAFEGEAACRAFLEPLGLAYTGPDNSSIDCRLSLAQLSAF
T2 sequence (P40337 whole entry, looked up, stated change not applied): as the sequence (P40337 whole entry, looked up) above
T2 sequence (Q02750 whole entry, looked up, stated change not applied): as the sequence (Q02750 whole entry, looked up) above

Cc1ncsc1-c1ccc([C@H](C)NC(=O)[C@@H]2C[C@@H](O)CN2C(=O)[C@@H](NC(=O)CCCCCCCCCCNCCCONC(=O)c2ccc(F)c(F)c2Nc2ccc(I)cc2F)C(C)(C)C)cc1
Activity [1]: Dose-dependent effect
DC50 [2]: 31 nM
Activity [3]: Dose-dependent effect
DC50 [4]: 56 nM
Activity [5]: Active
Activity [6]: Active
Activity [7]: Dose-dependent effect
Activity [8]: Dose-dependent effect
Activity [9]: Dose-dependent effect
Activity [10]: Dose-dependent effect
Activity [11]: inactive
Activity [12]: inactive
Activity [13]: Active
Activity [14]: > 80%
Activity [15]: > 80%
Activity [16]: Active
Activity [17]: inactive
Activity [18]: inactive
Activity [19]: inactive
Activity [20]: inactive
Activity [21]: inactive
Activity [22]: inactive
Activity [23]: Active
Activity [24]: inactive
growth inhibition (GI) [25]: Dose-dependent effect
GI50 ([25]; HT-29, 72 h): 130 nM
growth inhibition (GI) [26]: Dose-dependent effect
GI50 ([26]; COLO 205, 72 h): 30 to 200 nM
Ratio [27]: 3 to 20
Ratio [28]: 3 to 20
Activity [29]: Non-Toxic
